Laboratory results from patent US4395417A, “Antihyperlipidemic compositions” (Research Corporation, priority 1980, dated 1983).
Read-outs that look alike come from different tables or passages of the source.

Legend:
Fatty Acid Synthetase = molecular target: T1, Fatty Acid Synthetase (Mus musculus, UniProt P19096); experiment: In vitro effect on fatty acid synthetase; assay type: biochemical; conditions: Table 2, N = 6, x ± S.D.
T1 construct: gm wet tissue/30 min; from tissue

serum cholesterol = experiment: Serum cholesterol of male CF1 mice (Liebermann-Burchard reaction); assay type: in vivo; conditions: Mus musculus, ip
Experimental: (§1) For hypolipidemic activity, the compounds were tested at 20 mg/kg/day administered I.P. to male CF1 mice (~30 g). On days 9 and 16 blood was collected by tail-vein bleeding. Serum cholesterol was determined by the Liebermann-Burchard reaction. Serum triglyceride levels were determined using the Hycel commercial kits on a separate group of mice, which were bled on day 14.

serum triglyceride = experiment: Serum triglyceride levels of male mice (Hycel commercial kits); assay type: in vivo, male CF1 mice; conditions: Mus musculus, ip, 336 h
Experimental: as §1

Citrate Lyase = molecular target: T2, Citrate Lyase (Mus musculus, UniProt Q91V92); experiment: In vitro effect on citrate lyase; assay type: biochemical; conditions: Table 2, N = 6, x ± S.D., control 30.5 mg of citrate hydrolyzed/gm wet tissue/30 min.
T2 construct: 30.5 mg of citrate hydrolyzed/gm wet tissue/30 min; from tissue
T2 sequence (Q91V92 1-1091): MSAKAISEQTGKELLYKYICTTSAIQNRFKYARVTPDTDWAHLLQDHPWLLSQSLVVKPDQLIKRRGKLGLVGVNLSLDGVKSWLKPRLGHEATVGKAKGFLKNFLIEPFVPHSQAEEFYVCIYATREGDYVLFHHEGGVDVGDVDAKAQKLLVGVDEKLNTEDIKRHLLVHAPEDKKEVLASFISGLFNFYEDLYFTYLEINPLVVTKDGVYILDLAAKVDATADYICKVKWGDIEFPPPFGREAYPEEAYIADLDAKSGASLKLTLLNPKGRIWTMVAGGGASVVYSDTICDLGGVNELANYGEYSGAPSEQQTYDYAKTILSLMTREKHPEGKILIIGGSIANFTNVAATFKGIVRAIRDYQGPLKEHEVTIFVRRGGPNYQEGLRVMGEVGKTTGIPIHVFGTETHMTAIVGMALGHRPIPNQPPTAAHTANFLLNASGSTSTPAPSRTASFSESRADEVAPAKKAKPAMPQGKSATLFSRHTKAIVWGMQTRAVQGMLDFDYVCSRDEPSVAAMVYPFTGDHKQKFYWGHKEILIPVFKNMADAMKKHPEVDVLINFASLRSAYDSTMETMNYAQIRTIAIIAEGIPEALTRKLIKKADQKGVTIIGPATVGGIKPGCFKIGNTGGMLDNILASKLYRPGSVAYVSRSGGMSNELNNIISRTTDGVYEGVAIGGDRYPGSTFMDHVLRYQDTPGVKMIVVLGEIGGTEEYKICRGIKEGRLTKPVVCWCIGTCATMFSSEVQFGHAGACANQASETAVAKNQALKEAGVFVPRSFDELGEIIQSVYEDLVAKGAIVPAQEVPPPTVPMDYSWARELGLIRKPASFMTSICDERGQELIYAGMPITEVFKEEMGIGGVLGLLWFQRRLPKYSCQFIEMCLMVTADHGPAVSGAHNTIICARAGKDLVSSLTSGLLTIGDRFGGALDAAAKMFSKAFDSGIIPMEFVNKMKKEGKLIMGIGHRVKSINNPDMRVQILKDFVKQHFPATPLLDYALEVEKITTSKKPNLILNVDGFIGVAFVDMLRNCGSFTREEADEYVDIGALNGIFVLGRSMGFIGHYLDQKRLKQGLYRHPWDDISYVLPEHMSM

Acetyl-CoA Carboxylase = molecular target: T3, Acetyl-CoA Carboxylase (Mus musculus, UniProt Q5SWU9); experiment: In vitro acetyl coenzyme A carboxylase activity (method of Greenspan and Lowenstein); assay type: biochemical; conditions: Table 2, N = 6, x ± S.D., control 32,010 dpm/gm wet tissue/30 min.
T3 construct: 32,010 dpm/gm wet tissue/30 min; from tissue

Acetyl-CoA Synthetase = molecular target: T4, Acetyl-CoA Synthetase (Mus musculus, UniProt Q9QXG4); experiment: In vitro acetyl coenzyme A synthetase activity (method of Goodridge); assay type: biochemical, mice; conditions: for Acetyl-CoA Synthetase: Table 2, N = 6, x ± S.D., control 28.5 mg acetyl CoA formed/gm wet tissue/30 min.; for in vitro AcCoA synthetase: Table 3, N = 6, control 10.8 mg/g wet tissue
T4 construct: gm wet tissue/30 min; from tissue
T4 sequence (Q9QXG4 whole entry): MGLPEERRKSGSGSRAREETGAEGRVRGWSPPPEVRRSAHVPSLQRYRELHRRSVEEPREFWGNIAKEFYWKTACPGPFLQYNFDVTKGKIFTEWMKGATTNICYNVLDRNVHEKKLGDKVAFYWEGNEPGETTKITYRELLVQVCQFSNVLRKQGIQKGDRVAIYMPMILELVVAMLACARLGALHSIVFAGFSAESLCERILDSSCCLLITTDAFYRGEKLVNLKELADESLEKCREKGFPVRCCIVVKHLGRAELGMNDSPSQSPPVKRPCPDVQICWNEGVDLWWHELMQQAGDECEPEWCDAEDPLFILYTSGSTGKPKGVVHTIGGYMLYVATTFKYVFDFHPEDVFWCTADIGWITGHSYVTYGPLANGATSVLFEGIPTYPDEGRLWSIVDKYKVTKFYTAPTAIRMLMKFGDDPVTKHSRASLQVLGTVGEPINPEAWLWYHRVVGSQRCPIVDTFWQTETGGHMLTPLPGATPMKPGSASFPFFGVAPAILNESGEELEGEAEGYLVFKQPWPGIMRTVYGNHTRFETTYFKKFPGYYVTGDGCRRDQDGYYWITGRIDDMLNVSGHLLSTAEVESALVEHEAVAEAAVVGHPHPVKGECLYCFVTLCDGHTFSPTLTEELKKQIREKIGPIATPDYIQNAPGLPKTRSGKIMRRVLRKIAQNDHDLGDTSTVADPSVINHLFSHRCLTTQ

[1] = Hypertrophy of the adrenal; set-up: species or system mice; conditions: mouse, in vivo
[2] = Size of vas deferens, vesicular or testes after 16 day treatment in mice; assay type: in vivo; conditions: 16 day treatment at 10 (mg/kg)/day
[3] = Acute toxicity (LD50) in mice; assay type: in vivo; conditions: mouse, in vivo
Excerpt: (§2) They also are non-toxic. […] Moreover, there is no evidence that the weight of any of the major organs is altered as a result of treatment with compounds used in the invention.

mice = experiment: Acute toxicity (LD50) in mice; assay type: in vivo; conditions: 2 g/kg
Excerpt: as §2

[4] = test system: ovariectomized immature females; experiment: Uterotropic effects in ovariectomized immature females; assay type: in vivo, mice; conditions: 20 mg/kg
[5] = 216 h, Table 1, 20 mg/kg/day I.P., male CF1 mice, N = 6, 9th day, control value 118 mg %, read-out: Serum Cholesterol, 9th day
[6] = 384 h, Table 1, 20 mg/kg/day I.P., male CF1 mice, N = 6, 16th day, control value 122 mg %, read-out: Serum Cholesterol, 16th day
[7] = Table 1, 20 mg/kg/day I.P., male mice, N = 6, 14th day, control value 137 mg %, read-out: Serum Triglyceride, 14th day
[8] = 216 h, Table 3, mice, N = 6, 9th day, control 115 mg %, read-out: serum cholesterol, 9th day
[9] = 384 h, Table 3, mice, N = 6, 16th day, control 118 mg %, read-out: serum cholesterol, 16th day
[10] = Table 3, mice, N = 6, control 138 mg %, read-out: serum triglycerides

T1 sequence (P19096 whole entry): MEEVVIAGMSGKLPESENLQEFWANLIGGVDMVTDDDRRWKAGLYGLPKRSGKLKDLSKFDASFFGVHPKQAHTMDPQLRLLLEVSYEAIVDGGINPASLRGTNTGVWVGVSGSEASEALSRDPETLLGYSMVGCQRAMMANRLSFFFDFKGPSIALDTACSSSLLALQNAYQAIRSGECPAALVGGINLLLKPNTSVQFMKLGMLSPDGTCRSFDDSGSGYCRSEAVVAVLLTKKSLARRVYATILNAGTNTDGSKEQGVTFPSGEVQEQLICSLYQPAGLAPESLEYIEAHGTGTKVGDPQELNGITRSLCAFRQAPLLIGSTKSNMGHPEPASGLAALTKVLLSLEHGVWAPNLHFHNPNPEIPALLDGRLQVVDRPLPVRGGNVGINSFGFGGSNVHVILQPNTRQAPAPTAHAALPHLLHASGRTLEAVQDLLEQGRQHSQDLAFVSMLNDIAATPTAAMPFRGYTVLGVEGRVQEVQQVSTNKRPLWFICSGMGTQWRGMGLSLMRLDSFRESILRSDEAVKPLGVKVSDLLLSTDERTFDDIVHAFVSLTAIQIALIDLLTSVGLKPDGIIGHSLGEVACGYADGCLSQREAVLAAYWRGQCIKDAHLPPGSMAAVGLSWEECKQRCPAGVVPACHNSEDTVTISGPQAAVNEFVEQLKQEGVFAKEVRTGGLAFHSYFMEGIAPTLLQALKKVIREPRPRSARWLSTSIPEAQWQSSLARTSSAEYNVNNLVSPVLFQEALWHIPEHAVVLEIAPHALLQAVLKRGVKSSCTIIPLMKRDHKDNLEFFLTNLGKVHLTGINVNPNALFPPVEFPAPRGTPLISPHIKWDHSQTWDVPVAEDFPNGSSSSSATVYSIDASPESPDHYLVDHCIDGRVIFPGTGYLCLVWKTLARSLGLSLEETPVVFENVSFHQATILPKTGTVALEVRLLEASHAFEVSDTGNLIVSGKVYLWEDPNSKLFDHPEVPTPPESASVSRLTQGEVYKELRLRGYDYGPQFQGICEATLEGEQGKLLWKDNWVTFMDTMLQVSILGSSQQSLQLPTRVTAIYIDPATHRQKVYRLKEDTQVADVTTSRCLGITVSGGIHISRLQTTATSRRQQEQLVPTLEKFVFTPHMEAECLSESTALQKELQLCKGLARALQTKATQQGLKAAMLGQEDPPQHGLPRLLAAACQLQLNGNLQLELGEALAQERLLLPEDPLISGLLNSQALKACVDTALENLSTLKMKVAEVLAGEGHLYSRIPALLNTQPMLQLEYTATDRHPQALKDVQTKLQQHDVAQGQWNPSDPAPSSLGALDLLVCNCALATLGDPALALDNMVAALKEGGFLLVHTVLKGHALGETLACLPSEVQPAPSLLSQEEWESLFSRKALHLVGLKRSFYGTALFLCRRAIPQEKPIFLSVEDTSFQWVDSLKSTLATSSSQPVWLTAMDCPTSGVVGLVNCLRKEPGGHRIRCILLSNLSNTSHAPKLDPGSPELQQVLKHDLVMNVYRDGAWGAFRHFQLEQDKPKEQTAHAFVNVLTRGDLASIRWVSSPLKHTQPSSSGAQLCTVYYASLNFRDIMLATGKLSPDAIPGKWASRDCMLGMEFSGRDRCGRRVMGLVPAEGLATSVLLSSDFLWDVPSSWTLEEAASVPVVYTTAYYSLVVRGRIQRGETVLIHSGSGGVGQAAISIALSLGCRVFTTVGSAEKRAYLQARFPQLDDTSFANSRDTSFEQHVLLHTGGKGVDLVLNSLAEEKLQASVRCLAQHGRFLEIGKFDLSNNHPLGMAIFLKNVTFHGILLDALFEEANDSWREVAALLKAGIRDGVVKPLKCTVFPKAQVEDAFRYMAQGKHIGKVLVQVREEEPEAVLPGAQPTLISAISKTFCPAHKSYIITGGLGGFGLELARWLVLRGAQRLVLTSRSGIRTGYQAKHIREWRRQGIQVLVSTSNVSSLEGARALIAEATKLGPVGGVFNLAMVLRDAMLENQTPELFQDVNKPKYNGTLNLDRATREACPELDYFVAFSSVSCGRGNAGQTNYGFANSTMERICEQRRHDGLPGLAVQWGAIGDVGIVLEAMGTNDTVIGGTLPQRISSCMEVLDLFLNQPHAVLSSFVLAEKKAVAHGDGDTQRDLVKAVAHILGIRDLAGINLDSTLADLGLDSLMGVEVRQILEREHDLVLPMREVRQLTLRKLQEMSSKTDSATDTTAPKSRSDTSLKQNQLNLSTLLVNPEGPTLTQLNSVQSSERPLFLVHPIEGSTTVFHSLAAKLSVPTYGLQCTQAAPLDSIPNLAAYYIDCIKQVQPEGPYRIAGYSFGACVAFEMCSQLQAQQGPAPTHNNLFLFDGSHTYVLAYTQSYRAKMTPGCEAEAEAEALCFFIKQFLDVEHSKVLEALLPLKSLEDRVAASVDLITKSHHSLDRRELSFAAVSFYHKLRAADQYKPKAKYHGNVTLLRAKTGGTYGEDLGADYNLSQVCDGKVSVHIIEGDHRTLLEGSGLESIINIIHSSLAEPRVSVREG

Compound | Fatty Acid Synthetase (Fatty Acid Synthetase) [% Control] | response vs control in vivo at 20 mg/kg/day (serum cholesterol; [5]) [%] | response vs control in vivo at 20 mg/kg/day (serum cholesterol; [6]) [%] | response vs control in vivo at 20 mg/kg/day (serum triglyceride; [7]) [%] | Citrate Lyase (Citrate Lyase) [% Control] | Acetyl-CoA Carboxylase (Acetyl-CoA Carboxylase) [% Control] | Acetyl-CoA Synthetase (Acetyl-CoA Synthetase) [% Control] | response vs control in vivo at 20 mg/kg/day (serum cholesterol; [8]) [%] | response vs control in vivo at 20 mg/kg/day (serum cholesterol; [9]) [%] | response vs control in vivo at 20 mg/kg/day (serum triglyceride; [10]) [%] | in vitro AcCoA synthetase (Acetyl-CoA Synthetase) [% Control] | hypertrophy of the adrenal [1] | decrease in the size of the vas deferens, vesicular or testes [2] | LD50 [3] [mg/kg] | deaths (mice) | uterotropic effects [4]
O=C1NC(=O)c2cccc3cccc1c23 [1,8-Naphthalimide] | 86 ± 8 | 81 ± 6 | 61 ± 7 | 87 ± 12 | 66 ± 6 | 106 ± 6 | 63 ± 9 |  |  |  |  |  |  |  |  | 
CC(=O)CCN1C(=O)c2cccc3cccc(c23)C1=O [1-N--(1,8-Naphthalimido)butan-3-one] | 103 ± 4 | 94 ± 12 | 86 ± 9 | 54 ± 15 | 60 ± 5 | 59 ± 8 | 88 ± 5 |  |  |  |  |  |  |  |  | 
CC(=O)CCN1C(=O)c2ccccc2S1(=O)=O [1-N--(o-Benzosulfimido)butan-3-one] | 104 ± 7 | 60 ± 8 | 62 ± 6 | 51 ± 7 | 47 ± 8 | 12 ± 3 | 74 ± 9 |  |  |  |  |  |  |  |  | 
CC(=O)CCN1C(=O)c2ccccc2C1=O [1-N--Phthalimidobutan-3-one] | 109 ± 7 | 67 ± 11 | 63 ± 7 | 58 ± 7 | 34 ± 4 | 17 ± 3 | 53 ± 12 | 67 ± 11 | 63 ± 7 | 58 ± 7 | 53 ± 12 |  |  |  |  | 
CC(=O)CN1C(=O)c2ccccc2C1=O [1-N--Phthalimidopropan-2-one] | 91 ± 9 | 80 ± 16 | 67 ± 12 | 48 ± 10 | 76 ± 4 | 24 ± 4 | 58 ± 7 | 80 ± 16 | 67 ± 12 | 48 ± 10 | 58 ± 7 | no hypertophy of the adrenal | no decrease in the size of the vas deferens, vesicular or testes | > 2000 | no deaths were observed at this concentration | nor did the drug demonstrate uterotropic effects
CC(=O)CCN1C(=O)CCC1=O [1-N--Succinimidobutan-3-one] | 81 ± 7 | 90 ± 9 | 88 ± 7 | 79 ± 15 | 38 ± 7 | 100 ± 5 | 58 ± 6 |  |  |  |  |  |  |  |  | 
O=C(O)CCN1C(=O)c2ccccc2C1=O [3-N--Phthalimidopropionic Acid] | 107 ± 7 | 74 ± 10 | 55 ± 12 | 58 ± 9 | 87 ± 6 | 18 ± 4 | 57 ± 10 | 74 ± 7 | 55 ± 11 | 58 ± 10 | 57 ± 7 |  |  |  |  | 
CCCCN1C(=O)c2ccccc2C1=O [N--n-Butylphthalimide] | 75 ± 10 | 72 ± 11 | 54 ± 6 | 82 ± 10 | 72 ± 9 | 76 ± 3 | 44 ± 11 | 72 ± 10 | 54 ± 6 | 82 ± 16 | 82 ± 7 |  |  |  |  | 
O=C1NC(=O)c2ccccc21 [Phthalimide] | 105 ± 8 | 63 ± 13 | 57 ± 7 | 44 ± 8 | 42 ± 6 | 8 ± 4 | 70 ± 8 |  |  |  |  |  |  |  |  | 
O=C1NS(=O)(=O)c2ccccc21 [Saccharin] | 93 ± 5 | 68 ± 11 | 67 ± 10 | 51 ± 16 | 65 ± 6 | 9 ± 2 | 61 ± 7 |  |  |  |  |  |  |  |  | 
O=C1CCC(=O)N1 [Succinimide] | 98 ± 9 | 78 ± 9 | 73 ± 12 | 68 ± 7 | 38 ± 3 | 87 ± 7 | 74 ± 6 |  |  |  |  |  |  |  |  | 
